{"source": "patent US20020155192A1", "about": "“Yeast transport isoforms” (priority 2000, published 2002)", "type_in_all_cases": "biochemical", "key": {"Odc2p": {"molecular_target": "T1, Odc2p (Saccharomyces cerevisiae, UniProt Q99297)", "T1 construct": "made in house; host or cells: S. cerevisiae odc1Δodc2Δ (YPH499 background) carrying pYES2-based pODC2; purified from mitochondria on Ni-NTA agarose", "T1 sequence (Q99297 1-307)": "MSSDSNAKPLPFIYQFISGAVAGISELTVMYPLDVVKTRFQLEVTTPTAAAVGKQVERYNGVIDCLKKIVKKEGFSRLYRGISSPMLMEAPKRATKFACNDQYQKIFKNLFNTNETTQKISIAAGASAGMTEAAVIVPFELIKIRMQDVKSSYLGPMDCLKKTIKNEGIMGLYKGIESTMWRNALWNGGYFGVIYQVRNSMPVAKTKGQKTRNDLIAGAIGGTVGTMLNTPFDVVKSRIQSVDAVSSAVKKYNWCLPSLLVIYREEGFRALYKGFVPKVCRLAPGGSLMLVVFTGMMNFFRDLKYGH", "experiment": "Effect of inhibitors and external compounds on the [14C]oxoglutarate/oxoglutarate exchange by proteoliposomes reconstituted with Odc2p", "settings": "Odc2p; for inhibition of [14C]oxoglutarate/oxoglutarate exchange (in words): Table III"}, "Odc1p [1]": {"molecular_target": "T2, Odc1p (Saccharomyces cerevisiae, UniProt Q03028)", "T2 construct": "made in house; host or cells: S. cerevisiae odc1Δodc2Δ (YPH499 background) carrying pYES2-based pODC1; purified from mitochondria on Ni-NTA agarose", "T2 sequence (Q03028 1-310)": "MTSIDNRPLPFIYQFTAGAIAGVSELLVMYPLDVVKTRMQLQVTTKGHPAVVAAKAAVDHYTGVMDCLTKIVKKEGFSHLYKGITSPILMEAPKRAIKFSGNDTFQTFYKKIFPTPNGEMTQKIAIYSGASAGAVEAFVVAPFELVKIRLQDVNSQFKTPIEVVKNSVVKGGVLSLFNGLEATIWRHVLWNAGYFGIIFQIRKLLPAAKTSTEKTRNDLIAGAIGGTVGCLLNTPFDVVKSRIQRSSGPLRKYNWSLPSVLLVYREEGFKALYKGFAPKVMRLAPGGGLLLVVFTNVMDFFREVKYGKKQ", "experiment": "Efflux of [14C]oxoglutarate from proteoliposomes reconstituted with recombinant Odc1p", "settings": "10 mM oxoglutarate with 30 mM pyridoxal 5′-phosphate and 10 mM bathophenanthroline added together", "experimental": "FIG. 4. Efflux of [^14C]oxoglutarate from proteoliposomes. Proteoliposomes were reconstituted with recombinant Odc1p in the presence of 20 mM oxoglutarate, and then the internal substrate pool was labelled by carrier-mediated exchange equilibration. After removal of external substrate by Sephadex G-75 chromatography, the efflux of [^14C]oxoglutarate was started by adding buffer F alone (●) or 10 mM oxoglutarate (▪), or 10 mM oxoglutarate, 30 mM pyridoxal 5′-phosphate and 10 mM bathophenanthroline (□) in the same buffer.\nExternal substrate was removed from proteoliposomes on a Sephadex G-75 column preequilibrated with buffer F (50 mM NaCl and 10 mM PIPES, pH 7.0). […] The external radioactivity was removed on Sephadex G-75 and the internal radioactivity was measured. […] The initial rate of transport was calculated in mmol/min per g protein from the time course of isotope equilibration (13). […] For efflux measurements, the internal substrate pool of the proteoliposomes was made radioactive by carrier-mediated exchange equilibration (13) with 0.1 mM [^14C]oxoglutarate added at high specific radioactivity. After 60 min, the residual external radioactivity was removed by passing the proteoliposomes again through a column of Sephadex G-75. […]"}, "Odc1p [2]": {"molecular_target": "T2, Odc1p", "experiment": "Effect of inhibitors and external compounds on the [14C]oxoglutarate/oxoglutarate exchange by proteoliposomes reconstituted with Odc1p", "settings": "Odc1p; for Inhibition (%) of [14C]oxoglutarate/oxoglutarate exchange: 20 mM internal oxoglutarate, 0.4 mM [14C]oxoglutarate, 45 seconds, inhibitors 4 mM, except mercurials 10 μM, carboxyatractyloside 0.1 mM, N-ethylmaleimide and α-cyanocinnamate 2 mM; for inhibition of [14C]oxoglutarate/oxoglutarate exchange (in words): Table III"}}, "data": [{"smiles": "c1ccc(-c2ccnc3c2ccc2c(-c4ccccc4)ccnc23)cc1", "note": "[Bathophenanthroline]", "values": [{"measurement": "Inhibition (%) of [14C]oxoglutarate/oxoglutarate exchange", "setting": "Odc2p; 20 mM internal oxoglutarate, 0.4 mM [14C]oxoglutarate, 45 seconds, inhibitors 4 mM, except mercurials 10 μM, carboxyatractyloside 0.1 mM, N-ethylmaleimide and α-cyanocinnamate 2 mM", "result": 89, "unit": "%"}, {"measurement": "inhibition of [14C]oxoglutarate/oxoglutarate exchange (in words)", "setting": "Odc2p", "result": "inhibited strongly"}, {"measurement": "effect on efflux of [14C]oxoglutarate induced by external oxoglutarate (in words)", "setting": "Odc1p [1]", "result": "prevented completely"}, {"measurement": "Inhibition (%) of [14C]oxoglutarate/oxoglutarate exchange", "setting": "Odc1p [2]", "result": 97, "unit": "%"}, {"measurement": "inhibition of [14C]oxoglutarate/oxoglutarate exchange (in words)", "setting": "Odc1p [2]", "result": "inhibited strongly"}]}, {"smiles": "Cc1ncc(COP(=O)(O)O)c(C=O)c1O", "note": "[Pyridoxal 5′-phosphate]", "values": [{"measurement": "inhibition of [14C]oxoglutarate/oxoglutarate exchange (in words)", "setting": "Odc2p", "result": "inhibited strongly"}, {"measurement": "effect on efflux of [14C]oxoglutarate induced by external oxoglutarate (in words)", "setting": "Odc1p [1]", "result": "prevented completely"}, {"measurement": "Inhibition (%) of [14C]oxoglutarate/oxoglutarate exchange", "setting": "Odc1p [2]", "result": 92, "unit": "%"}, {"measurement": "inhibition of [14C]oxoglutarate/oxoglutarate exchange (in words)", "setting": "Odc1p [2]", "result": "inhibited strongly"}]}]}
